Test results as given in US20240174690A1, “ANNULATED 2-AMINO-3-CYANO THIOPHENES AND DERIVATIVES FOR THE TREATMENT OF CANCER” (BOEHRINGER INGELHEIM INTERNATIONAL GMBH, priority 2021, published 2024).
Read-outs that look alike come from different tables or passages of the source.

Experiments:
[1] = system: NCI-H2122 cells; assay: NCI-H2122 CTG proliferation assay (120 h) (NSCLC, G12C); assay type: cell-based
Summary of the method: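 NCI-H2122 cells (KRAS G12C NSCLC), 200 per well in RPMI with 10% FCS, were dosed with compound on day 1 and incubated 120 h at 37 °C. Viability was read by CellTiter-Glo luminescence as percent of DMSO control, and IC50 was fitted with a four-parameter model.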

[2] = molecular target: KRAS (G12D)::SOS1 (Homo sapiens (Human), UniProt P01116, G12D); assay: KRAS::SOS1 AlphaScreen binding assay, KRAS G12D
Sequence of KRAS (G12D)::SOS1 (P01116 other isoform, or with tags, fused parts or gaps G12D): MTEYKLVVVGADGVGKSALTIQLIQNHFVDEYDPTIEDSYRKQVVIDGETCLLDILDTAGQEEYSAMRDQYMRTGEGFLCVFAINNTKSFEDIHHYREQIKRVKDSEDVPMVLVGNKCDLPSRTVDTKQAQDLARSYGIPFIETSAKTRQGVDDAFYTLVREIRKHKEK
Summary of the method: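 Compounds (up to 100 μM, eleven fivefold dilutions in duplicate) were incubated 30 min with KRAS 1-169 (10 nM, or 7.5 nM for G12C), GST-SOS1 564-1049 (5 nM for G12D/G12C, 10 nM for others) and 10 μM GDP in PBS buffer with BSA and Tween. Donor/acceptor beads were then added for 60 min at room temperature, and IC50 came from a 4-parameter fit of the AlphaScreen signal.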

[3] = system: KRAS G12V-dependent Ba/F3 cells; assay: Ba/F3 proliferation assay, KRAS G12V; assay type: cell-based; details: AlamarBlue;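 also: proliferation IC50 in KRAS G12V-dependent Ba/F3 cells read by AlamarBlue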
Summary of the method: (§1)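 Viability is measured as AlamarBlue fluorescence in Ba/F3 cells that depend on a transduced mutant KRAS isoform for growth without IL-3. Each treatment is run in technical duplicate, and dose-response curves are fitted.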

[4] = system: KRAS G12D-dependent Ba/F3 cells; assay: Ba/F3 proliferation assay, KRAS G12D; assay type: cell-based; details: AlamarBlue
Summary of the method: as §1

Structure (SMILES)	IC50 ([1]; Homo sapiens) [nM]	IC50 [2] [nM]	IC50 ([3]; Mus musculus, BaF3, 72 h) [nM]	IC50 ([4]; Mus musculus, BaF3, 72 h) [nM]	IC50 [1] [nM]	IC50 ([3]; 72 h) [nM]	IC50 ([4]; 72 h) [nM]
C[C@H](Oc1cc(Cl)nc(-c2onc3c2CCC[C@@]32CCCc3sc(N)c(C#N)c32)n1)[C@@H]1CCCN1C [I-1]	4120	3	43	178			
C[C@H](Oc1nc(-c2onc3c2CCC[C@@]32CCCc3sc(N)c(C#N)c32)cc(N2CCNC3(CC3)C2)n1)[C@@H]1CCCN1C [I-2]		2		124			
C[C@H](Oc1cc(-c2ccn(C)n2)nc(-c2onc3c2CCC[C@@]32CCCc3sc(N)c(C#N)c32)n1)[C@@H]1CCCN1C [I-21]		4			1430	6	14
C[C@H](Oc1cc(-c2ccc(N)nc2)nc(-c2onc3c2CCC[C@@]32CCCc3sc(N)c(C#N)c32)n1)[C@@H]1CCCN1C [I-25]	1650	5	57	261			
C[C@H](Oc1cc(-c2ccn(CC(C)(C)O)n2)nc(-c2onc3c2CCC[C@@]32CCCc3sc(N)c(C#N)c32)n1)[C@@H]1CCCN1C [I-26]	1070	3	13	48			
C[C@H](Oc1cc(-c2cnsc2)nc(-c2onc3c2CCC[C@@]32CCCc3sc(N)c(C#N)c32)n1)[C@@H]1CCCN1C [I-27]	599	3	7	64			
Cc1ccc(-c2cc(O[C@@H](C)[C@@H]3CCCN3C)nc(-c3onc4c3CCC[C@@]43CCCc4sc(N)c(C#N)c43)n2)cn1 [I-28]	2600	10	41	250			
C[C@H](Oc1cc(-n2nccn2)nc(-c2onc3c2CCC[C@@]32CCCc3sc(N)c(C#N)c32)n1)[C@@H]1CCCN1C [I-29]	3130	6	15	71			
C[C@H](Oc1cc(-c2ccn(C[C@@H](C)O)n2)nc(-c2onc3c2CCC[C@@]32CCCc3sc(N)c(C#N)c32)n1)[C@@H]1CCCN1C [I-30]	837	2	8	42			
C[C@H](O)Cn1ccc(-c2cc(O[C@@H](C)[C@@H]3CCCN3C)nc(-c3onc4c3CCC[C@@]43CCCc4sc(N)c(C#N)c43)n2)n1 [I-31]		3	9	43			
C[C@H](Oc1cc(N2CCN(C)C3(COC3)C2)nc(-c2onc3c2CCC[C@@]32CCCc3sc(N)c(C#N)c32)n1)[C@@H]1C[C@@H](F)CN1C [I-37]		1	1340	78			
C[C@H](Oc1nc(-c2onc3c2CCC[C@@]32CCCc3sc(N)c(C#N)c32)cc(N2CCN(C)C3(CC3)C2)n1)[C@@H]1CCCN1C [I-40]		6		243			
C[C@H]1CN(C)CCCN1c1nc(-c2onc3c2CCC[C@@]32CCCc3sc(N)c(C#N)c32)cc(N2CCN(C)C3(CC3)C2)n1 [I-42]		35		440			
CO[C@@H]1C[C@@H]([C@H](C)Oc2cc(N3CCN(C)C4(CC4)C3)nc(-c3onc4c3CCC[C@@]43CCCc4sc(N)c(C#N)c43)n2)N(C)C1 [I-50]		1	811	41			
C[C@@H]1CN(c2cc(O[C@@H](C)[C@@H]3C[C@@H](F)CN3C)nc(-c3noc4c3CCC[C@@]43CCCc4sc(N)c(C#N)c43)n2)CC2(CC2)N1 [II-17]		2	422	39			
C[C@H]1CN(C)CCCN1c1cc(N2CCN(C)CC2)nc(-c2noc3c2CCC[C@@]32CCCc3sc(N)c(C#N)c32)n1 [II-30]	3550	4		273			
C[C@H](Oc1cc(N2CCN(C)CC2)nc(-c2noc3c2CCC[C@@]32CCCc3sc(N)c(C#N)c32)n1)[C@@H]1CCCN1[C@@H]1CCOC1 [II-39]	3600	1		68			
C[C@H](Oc1nc(-c2noc3c2CCC[C@@]32CCCc3sc(N)c(C#N)c32)cc(N2C[C@H](C)N[C@@H](C)C2)n1)[C@@H]1CCCN1C [II-46]	900	1		116			
C[C@H](Oc1cc(-n2ccsc2=O)nc(-c2noc3c2CCC[C@@]32CCCc3sc(N)c(C#N)c32)n1)[C@@H]1CCCN1C [II-135]	112		4	1040			

Further compounds by falling IC50 ([4]; Mus musculus, BaF3, 72 h), results first:

IC50 ([1]; Homo sapiens) [nM]	IC50 [2] [nM]	IC50 ([3]; Mus musculus, BaF3, 72 h) [nM]	IC50 ([4]; Mus musculus, BaF3, 72 h) [nM]	Structure (SMILES)	IC50 [1] [nM]	IC50 ([3]; 72 h) [nM]	IC50 ([4]; 72 h) [nM]
	1	895	34	C[C@H](Oc1cc(N2CCN(C)C3(CC3)C2)nc(-c2onc3c2CCC[C@@]32CCCc3sc(N)c(C#N)c32)n1)[C@@H]1C[C@@H](F)CN1C [I-39]			
1360	2	10	30	C[C@H](Oc1cc(-n2ccnc2)nc(-c2onc3c2CCC[C@@]32CCCc3sc(N)c(C#N)c32)n1)[C@@H]1CCCN1C [I-20]			
8830	7	7	27	CO[C@@H]1C[C@@H]([C@H](C)Oc2cc(-c3ccn(C)n3)nc(-c3onc4c3CCC[C@@]43CCCc4sc(N)c(C#N)c43)n2)N(C)C1 [I-23]			
930	2	5	24	Cc1nc(-c2cc(O[C@@H](C)[C@@H]3CCCN3C)nc(-c3onc4c3CCC[C@@]43CCCc4sc(N)c(C#N)c43)n2)cs1 [I-24]			
	1	4	24	CO[C@H]1CCN(C)[C@@H]1[C@H](C)Oc1cc(-n2ccc(CC(=O)NC(C)C)n2)nc(-c2onc3c2CCC[C@@]32CCCc3sc(N)c(C#N)c32)n1 [I-48]			
	1	4	22	C[C@H](Oc1cc(-n2ccc(C(=O)N(C)C3COC3)n2)nc(-c2onc3c2CCC[C@@]32CCCc3sc(N)c(C#N)c32)n1)[C@@H]1CCCN1C [I-60]			
	2	438	20	C[C@H](Oc1cc(N2C[C@H](C)NC3(CC3)C2)nc(-c2noc3c2CCC[C@@]32CCCc3sc(N)c(C#N)c32)n1)[C@@H]1C[C@@H](F)CN1C [II-18]			
		389	18	[2H]C([2H])([2H])N1C[C@H](F)C[C@H]1[C@H](C)Oc1cc(N2CCN(C)C3(CC3)C2)nc(-c2noc3c2CCC[C@@]32CCCc3sc(N)c(C#N)c32)n1 [II-209]			
	2	4	16	C[C@H](Oc1cc(-n2ccc(C(=O)N[C@@H]3CCOC3)n2)nc(-c2onc3c2CCC[C@@]32CCCc3sc(N)c(C#N)c32)n1)[C@@H]1CCCN1C [I-56]			
10200	1	9	14	C[C@H](Oc1cc([C@@H]2CCOC2)nc(-c2onc3c2CCC[C@@]32CCCc3sc(N)c(C#N)c32)n1)[C@@H]1CCCN1C [I-22]			
	1	1	13	C[C@H](NC(=O)c1ccn(-c2cc(O[C@@H](C)[C@@H]3CCCN3C)nc(-c3onc4c3CCC[C@@]43CCCc4sc(N)c(C#N)c43)n2)n1)c1ccccn1 [I-59]			
	1	1	12	CO[C@H]1CCN(C)[C@@H]1[C@H](C)Oc1cc(-n2ccc(C(=O)N[C@@H]3CCOC3)n2)nc(-c2onc3c2CCC[C@@]32CCCc3sc(N)c(C#N)c32)n1 [I-53]			
	1	1	12	COCCNC(=O)c1ccn(-c2cc(O[C@@H](C)[C@@H]3[C@@H](OC)CCN3C)nc(-c3onc4c3CCC[C@@]43CCCc4sc(N)c(C#N)c43)n2)n1 [I-55]			
	1	453	11	C[C@H](Oc1cc(N2CCNC3(CC3)C2)nc(-c2onc3c2CCC[C@@]32CCCc3sc(N)c(C#N)c32)n1)[C@@H]1C[C@@H](F)CN1C [I-45]			
	1	6	11	COCCNC(=O)c1ccn(-c2cc(O[C@@H](C)[C@@H]3CCCN3C)nc(-c3onc4c3CCC[C@@]43CCCc4sc(N)c(C#N)c43)n2)n1 [I-58]			
3750	1	134	9	C[C@H](Oc1cc(N2CCNC3(COC3)C2)nc(-c2onc3c2CCC[C@@]32CCCc3sc(N)c(C#N)c32)n1)[C@@H]1CCCN1C [I-4]			
	2	1	8	C[C@H](Oc1cc(-n2ccc(C(=O)N[C@H]3CCOC3)n2)nc(-c2onc3c2CCC[C@@]32CCCc3sc(N)c(C#N)c32)n1)[C@@H]1CCCN1C [I-57]			
	1	1	7	CO[C@H]1CCN(C)[C@@H]1[C@H](C)Oc1cc(-n2ccc(C(=O)N[C@H]3CCOC3)n2)nc(-c2onc3c2CCC[C@@]32CCCc3sc(N)c(C#N)c32)n1 [I-54]			
3370	1	351	5	C[C@H](Oc1cc(N2CCNC3(CCC3)C2)nc(-c2onc3c2CCC[C@@]32CCCc3sc(N)c(C#N)c32)n1)[C@@H]1CCCN1C [I-3]			
	1	184	3	CO[C@H]1CCN(C)[C@@H]1[C@H](C)Oc1cc(N2CCNC3(CC3)C2)nc(-c2onc3c2CCC[C@@]32CCCc3sc(N)c(C#N)c32)n1 [I-49]			
		166	3	[2H]C([2H])([2H])N1C[C@H](F)C[C@H]1[C@H](C)Oc1cc(N2CCNC3(CC3)C2)nc(-c2noc3c2CCC[C@@]32CCCc3sc(N)c(C#N)c32)n1 [II-208]			
